Assay results published in patent US10604489B2, “Compounds for the treatment of pain” (priority 2018, dated 2020).
Counter-ions that a name gives are not always drawn.

Assays:
[1] = molecular target: μ-receptor (Homo sapiens (Human), UniProt P35372); experiment: Receptor binding, competitive displacement of [3H]DAMGO; settings: 0.25 nM [3H]DAMGO, CHO cell membrane protein, 60 min at 25° C.
Summary of the method: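 Membranes from CHO cells stably expressing cloned human μ-opioid receptor incubated 60 min at 25 °C with 12 compound concentrations and 0.25 nM [3H]DAMGO in 50 mM Tris-HCl pH 7.5; nonspecific binding with 10 μM naloxone. Filtration and scintillation counting; Ki from IC50 by Cheng-Prusoff.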

[2] = molecular target: human μ opioid receptor (Homo sapiens (Human), UniProt P35372); experiment: Functional activity ([35S]GTPγS binding); type: biochemical; settings: [35S]GTPγS 0.080 nM, CHO cell membranes, 60 min at 30° C., filtration
Summary of the method: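 Membranes from stably transfected CHO cells (7.5 μg) incubated with 12 test-compound concentrations and 0.080 nM [35S]GTPγS in 50 mM Tris-HCl pH 7.4, 3 mM MgCl2, 0.2 mM EGTA, 3 μM GDP, 100 mM NaCl, 60 min at 30° C. Nonspecific binding defined with 10 μM GTPγS; bound label collected by filtration and scintillation counting.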

## COC1(c2cccc(C(N)=O)c2)C2CCCC1CN(Cc1nc3ccccc3[nH]1)C2 [Compound 64, 3-((1R,5S,9r)-3-((1H-benzo[d]imidazol-2-yl)methyl)-9-methoxy-3-azabicyclo[3.3.1]nonan-9-yl)benzamide hydrochloride]
[1]
  Ki: < 1 nM
[2]
  EC50: < 10 nM

## COC1(c2ccnc(C(N)=O)c2)C2CCCC1CN(C1CC3(CCOCC3)C1)C2 [Compound 13, 4-((1R,5S,9r)-9-methoxy-3-(7-oxaspiro[3.5]nonan-2-yl)-3-azabicyclo[3.3.1]nonan-9-yl)picolinamide hydrochloride]
[1]
  Ki: < 1 nM
[2]
  EC50: < 10 nM

## COC1(c2ccnc(C(N)=O)c2)C2CCCC1CN([C@H]1C[C@@H](F)C1)C2 (stereo partly drawn) [Compound 2, 4-((1R,5S,9R)-3-((1s,3S)-3-fluorocyclobutyl)-9-methoxy-3-azabicyclo[3.3.1]nonan-9-yl)picolinamide hydrochloride]
[1]
  Ki: < 1 nM
[2]
  EC50: 10 to 75 nM

## COC1(c2ccnc(C(N)=O)c2)C2CCCC1CN(C(C)C)C2 [Compound 76, 4-((1R,5S,9r)-3-isopropyl-9-methoxy-3-azabicyclo[3.3.1]nonan-9-yl)picolinamide hydrochloride]
[1]
  Ki: 1 to 5 nM
[2]
  EC50: 10 to 75 nM

## CCN1CC2CCCC(C1)C2(OC)c1ccnc(C(N)=O)c1 [Compound 66, 4-((1R,5S,9r)-3-ethyl-9-methoxy-3-azabicyclo[3.3.1]nonan-9-yl)picolinamide hydrochloride]
[1]
  Ki: 1 to 5 nM
[2]
  EC50: 10 to 75 nM

## COC1(c2ccnc(C(N)=O)c2)C2CCCC1CN(C1CC(c3ccccc3)C1)C2 [Compound 87, 4-((1R,5S,9R)-9-methoxy-3-((1r,3R)-3-phenylcyclobutyl)-3-azabicyclo[3.3.1]nonan-9-yl)picolinamide hydrochloride]
[1]
  Ki: < 1 nM
[2]
  EC50: < 10 nM

## CCCCN1CC2CCCC(C1)C2(OC)c1cccc(C(N)=O)c1 [Compound 29, 3-((1R,5S,9r)-3-butyl-9-methoxy-3-azabicyclo[3.3.1]nonan-9-yl)benzamide hydrochloride]
[1]
  Ki: < 1 nM
[2]
  EC50: < 10 nM

## COC1(c2cccc(C(N)=O)c2)C2CCCC1CN(Cc1cnn[nH]1)C2 [Compound 75, 3-((1R,5S,9r)-3-((1H-1,2,3-triazol-5-yl)methyl)-9-methoxy-3-azabicyclo[3.3.1]nonan-9-yl)benzamide hydrochloride]
[1]
  Ki: < 1 nM
[2]
  EC50: < 10 nM

## COC1(c2ccnc(C(N)=O)c2)C2CCCC1CN(Cc1cncn1C)C2 [Compound 121, 4-((1R,5S,9r)-9-methoxy-3-((1-methyl-1H-imidazol-5-yl)methyl)-3-azabicyclo[3.3.1]nonan-9-yl)picolinamide hydrochloride]
[1]
  Ki: 1 to 5 nM
[2]
  EC50: > 75 nM

## COC1(c2ccnc(C(N)=O)c2)C2CCCC1CN(C1CCCC1)C2 [Compound 55, 4-((1R,5S,9r)-3-cyclopentyl-9-methoxy-3-azabicyclo[3.3.1]nonan-9-yl)picolinamide hydrochloride]
[1]
  Ki: < 1 nM
[2]
  EC50: 10 to 75 nM

## COC1(c2ccnc(C(N)=O)c2)C2CCCC1CN([C@H]1C[C@H]3C[C@H]3C1)C2 (stereo partly drawn) [Compound 94, 4-((1R,5S,9R)-3-((1R,3s,5S)-bicyclo[3.1.0]hexan-3-yl)-9-methoxy-3-azabicyclo[3.3.1]nonan-9-yl)picolinamide hydrochloride]
[1]
  Ki: < 1 nM
[2]
  EC50: 10 to 75 nM

## COC1(c2cccc(C(N)=O)c2)C2CCCC1CN(Cc1ccccc1)C2 [Compound 21, 3-((1R,5S,9r)-3-benzyl-9-methoxy-3-azabicyclo[3.3.1]nonan-9-yl)benzamide hydrochloride]
[1]
  Ki: < 1 nM
[2]
  EC50: < 10 nM

## COC1(c2ccc(C(N)=O)s2)C2CCCC1CN(C13CC(C1)C3)C2 [Compound 112, 5-((1R,5S,9r)-3-(bicyclo[1.1.1]pentan-1-yl)-9-methoxy-3-azabicyclo[3.3.1]nonan-9-yl)thiophene-2-carboxamide hydrochloride]
[1]
  Ki: 1 to 5 nM
[2]
  EC50: > 75 nM

## CCC[C@H](C)N1CC2CCCC(C1)C2(OC)c1ccnc(C(N)=O)c1 (single isomer, unassigned) [Compound 134, hydrochloride]
[1]
  Ki: < 1 nM
[2]
  EC50: 10 to 75 nM

## COC1(c2cccc(C(N)=O)c2)C2CCCC1CN(C1CCC3(CC1)COC3)C2 [Compound 3, 3-((1R,5S,9r)-9-methoxy-3-(2-oxaspiro[3.5]nonan-7-yl)-3-azabicyclo[3.3.1]nonan-9-yl)benzamide (S)-2-hydroxysuccinate]
[1]
  Ki: < 1 nM
[2]
  EC50: < 10 nM

## COC1(c2cccc(C(N)=O)c2)C2CCCC1CN([C@H]1C[C@H]3C[C@H]3C1)C2 (stereo partly drawn) [Compound 11, 3-((1R,5S,9r)-3-(bicyclo[3.1.0]hexan-3-yl)-9-methoxy-3-azabicyclo[3.3.1]nonan-9-yl)benzamide hydrochloride]
[1]
  Ki: < 1 nM
[2]
  EC50: < 10 nM

## COC1(c2cccc(C(N)=O)c2)C2CCCC1CN(C1CCC(F)(F)CC1)C2 [Compound 9, 3-((1R,5S,9r)-3-(4,4-difluorocyclohexyl)-9-methoxy-3-azabicyclo[3.3.1]nonan-9-yl)benzamide hydrochloride]
[1]
  Ki: < 1 nM
[2]
  EC50: 10 to 75 nM

## CCCN1CC2CCCC(C1)C2(OC)c1cccc(C(N)=O)c1 [Compound 47, 3-((1R,5S,9r)-9-methoxy-3-propyl-3-azabicyclo[3.3.1]nonan-9-yl)benzamide hydrochloride]
[1]
  Ki: < 1 nM
[2]
  EC50: < 10 nM

## COC1(c2ccnc(C(N)=O)c2)C2CCCC1CN([C@H]1C[C@@H](C)C1)C2 (stereo partly drawn) [Compound 130, 4-((1R,5S,9R)-9-methoxy-3-((1s,3S)-3-methylcyclobutyl)-3-azabicyclo[3.3.1]nonan-9-yl)picolinamide hydrochloride]
[1]
  Ki: < 1 nM
[2]
  EC50: 10 to 75 nM

## COC1(c2ccnc(C(N)=O)c2)C2CCCC1CN(C1CC(F)(F)C1)C2 [Compound 82, 4-((1R,5S,9r)-3-(3,3-difluorocyclobutyl)-9-methoxy-3-azabicyclo[3.3.1]nonan-9-yl)picolinamide hydrochloride]
[1]
  Ki: 1 to 5 nM
[2]
  EC50: 10 to 75 nM

## COC1(c2ccnc(C(N)=O)c2)C2CCCC1CN(C1CC3(COC3)C1)C2 [Compound 81, 4-((1R,5S,9r)-9-methoxy-3-(2-oxaspiro[3.3]heptan-6-yl)-3-azabicyclo[3.3.1]nonan-9-yl)picolinamide (S)-2-hydroxysuccinate]
[1]
  Ki: < 1 nM
[2]
  EC50: 10 to 75 nM

## COC1(c2ccnc(C(N)=O)c2)C2CCCC1CN(Cc1ncco1)C2 [Compound 113, 4-((1R,5S,9r)-9-methoxy-3-(oxazol-2-ylmethyl)-3-azabicyclo[3.3.1]nonan-9-yl)picolinamide hydrochloride]
[1]
  Ki: > 5 nM
[2]
  EC50: > 75 nM

## COC1(c2cccc(C(N)=O)c2)C2CCCC1CN(C1CC3CCC(C1)O3)C2 (single isomer, unassigned) [Compound 14, hydrochloride]
[1]
  Ki: 1 to 5 nM
[2]
  EC50: > 75 nM

## COC1(c2cccc(C(N)=O)c2)C2CCCC1CN(CCC(F)F)C2 (stereo not drawn) [Compound 159]
[1]
  Ki: < 1 nM
[2]
  EC50: < 10 nM

## COC1(c2ccnc(C(N)=O)c2)C2CCCC1CN([C@H]1C[C@@H]3[C@H](C1)C3(F)F)C2 (stereo partly drawn) [Compound 18, 4-((1R,5S,9R)-3-((1R,3r,5S)-6,6-difluorobicyclo[3.1.0]hexan-3-yl)-9-methoxy-3-azabicyclo[3.3.1]nonan-9-yl)picolinamide hydrochloride]
[1]
  Ki: < 1 nM
[2]
  EC50: < 10 nM

## COC1(c2cccc(C(N)=O)c2)C2CCCC1CN(CC1(F)CC1)C2 [Compound 40, 3-((1R,5S,9r)-3-((1-fluorocyclopropyl)methyl)-9-methoxy-3-azabicyclo[3.3.1]nonan-9-yl)benzamide hydrochloride]
[1]
  Ki: < 1 nM
[2]
  EC50: 10 to 75 nM

## COC1(c2cccc(C(N)=O)c2F)C2CCCC1CN(C)C2 [Compound 39, 2-fluoro-3-((1R,5S,9r)-9-methoxy-3-methyl-3-azabicyclo[3.3.1]nonan-9-yl)benzamide hydrochloride]
[1]
  Ki: 1 to 5 nM
[2]
  EC50: 10 to 75 nM

## COC1(c2ccnc(C(N)=O)c2)C2CCCC1CN(C1CC3(CCC3)C1)C2 [Compound 77, 4-((1R,5S,9r)-9-methoxy-3-(spiro[3.3]heptan-2-yl)-3-azabicyclo[3.3.1]nonan-9-yl)picolinamide hydrochloride]
[1]
  Ki: < 1 nM
[2]
  EC50: < 10 nM

## COC1(c2ccnc(C(N)=O)c2)C2CCCC1CN([C@H]1CCCOC1)C2 (stereo partly drawn) [Compound 132, 4-((1R,5S,9s)-9-methoxy-3-((S)-tetrahydro-2H-pyran-3-yl)-3-azabicyclo[3.3.1]nonan-9-yl)picolinamide hydrochloride]
[1]
  Ki: 1 to 5 nM
[2]
  EC50: > 75 nM

## COC1(c2cccc(C(N)=O)c2)C2CCCC1CN(C1CCC1)C2 [Compound 42, 3-((1R,5S,9r)-3-cyclobutyl-9-methoxy-3-azabicyclo[3.3.1]nonan-9-yl)benzamide hydrochloride]
[1]
  Ki: < 1 nM
[2]
  EC50: < 10 nM

## COC1(c2cccc(C(N)=O)c2)C2CCCC1CN(C[C@H]1CCOC1)C2 (single isomer, unassigned) [Compound 148, hydrochloride]
[1]
  Ki: < 1 nM
[2]
  EC50: < 10 nM

## COC1(c2ccnc(C(N)=O)c2)C2CCCC1CN(Cc1ccncc1)C2 [Compound 69, 4-((1R,5S,9r)-9-methoxy-3-(pyridin-4-ylmethyl)-3-azabicyclo[3.3.1]nonan-9-yl)picolinamide hydrochloride]
[1]
  Ki: > 5 nM
[2]
  EC50: > 75 nM

## COC1(c2ccnc(C(N)=O)c2)C2CCCC1CN([C@@H]1C[C@H]3C[C@H]3C1)C2 (stereo partly drawn) [Compound 93, 4-((1R,5S,9R)-3-((1R,3r,5S)-bicyclo[3.1.0]hexan-3-yl)-9-methoxy-3-azabicyclo[3.3.1]nonan-9-yl)picolinamide hydrochloride]
[1]
  Ki: 1 to 5 nM
[2]
  EC50: 10 to 75 nM
